In US9856207B2, “Process for the production of ralfinamide salts substantially free from impurities having genotoxic effects” (Newron Pharmaceuticals S.p.A., priority 2010, dated 2018):

How the values were obtained:
Type in all cases: physicochemical
[1] = Intrinsic Dissolution Rate (IDR) measurement according to USP General Chapter <1087>; conditions: ralfinamide methanesulfonate solid forms, USP <1087>
Protocol: Intrinsic dissolution rate is characteristic of each solid compound in a given solvent under fixed hydrodynamic conditions. The knowledge of this value helps in predicting if absorption would be dissolution rate-limited. The Intrinsic Dissolution Rate (IDR) measurement of ralfinamide methanesulfonate form A and H was performed according to USP General Chapter <1087>.

[2] = Exposure of form A crystals to air stream of high relative humidity (water uptake, solid form conversion); conditions: 97% RH air stream at 25° C. for two months
From the text: As an alternative procedure to the slurring with water for converting anhydrous form A crystals containing undesired amounts of genotoxic impurities and/or of the residual solvents known as potential precursors thereof into the corresponding hemihydrate pseudopolymorph form H substantially free from the genotoxic impurities and/or the residual solvents known as potential precursors thereof, the capability of anhydrous form A crystals to uptake water from air having high degree of relative humidity may be exploited. For example, full conversion of form A crystals into the corresponding hemihydrate pseudopolymorph form H crystals can be achieved by keeping a batch of ralfinamide methanesulfonate or its R-enantiomer form A crystals under air stream having relative humidity higher than 65% at a temperature from 5° C. to 30° C. for a period of time which may vary from days to weeks or months, depending on the relative humidity degree and the temperature.

[3] = Solubility of the free base in water; conditions: also at 100° C.
Protocol: According to a preferred method to carry out the procedure defined above as “salt formation”, the formation of ralfinamide methanesulfonate form H or its R-enantiomer is carried out by using water as the sole solvent in which the free base and the methanesulfonic acid are contacted in substantially equimolecular proportion. According to a more preferred method, methanesulfonic acid is added to a suspension or emulsion of the free base in water. Generally 50-70 percent of the stoichiometric amount of the acid is initially added. […] The remaining portion of methanesulfonic acid to complete the stoichiometric amount required for the salification, or a small excess or defect (in both cases of up to 3 molar %), is subsequently added to the obtained solution. […] Therefore, it would not be possible to apply prior to the addition of the acid, any purification method implying the treatment of a solution of the free base with active charcoal or inert powder followed by filtration to remove small particles and/or impurities. […] The complementary amount of acid may be added soon after this treatment of the solution, preferably, after lowering the temperature of the mixture below 70° C.

Intrinsic Dissolution Rate [1] [mg · cm−2 · min−1] | Solid form stability under humid air [2] | Solubility in water [3] | SMILES
1.527 ± 0.265 | fully converted into the form H |  | CS(=O)(=O)O.C[C@H](NCc1ccc(OCc2ccccc2F)cc1)C(N)=O [Anhydrous form A, (S)-2-[4-(2-fluorobenzyloxy)benzylamino]propanamide methanesulfonate]
0.857 ± 0.012 |  |  | CS(=O)(=O)O.C[C@H](NCc1ccc(OCc2ccccc2F)cc1)C(N)=O [Hemihydrate form H, (S)-2-[4-(2-fluorobenzyloxy)benzylamino]propanamide methanesulfonate]
 |  | practically insoluble in water | C[C@@H](NCc1ccc(OCc2ccccc2F)cc1)C(N)=O [R-enantiomer, (R)-2-[4-(2-fluorobenzyloxy)benzylamino]propanamide]
 |  | practically insoluble in water | C[C@H](NCc1ccc(OCc2ccccc2F)cc1)C(N)=O [Ralfinamide free base, (S)-2-[4-(2-fluorobenzyloxy)benzylamino]propanamide]
